One assay has as its system Aβ42 secretion. The assay can be described thus: Aβ42 secretion by H4 cells expressing APP695, sandwich ELISA. The assay is classed as cell-based, human. To be noted: medium collected at 24 or 48 hours, several numbers = independent sets of assays; for IC50: about 1 μM to about 100 μM; for inhibition at 100 µM / % Inhibition of Aβ42 Secretion @ 100 μM: test compound 100 μM vs DMSO control. The procedure:
(§1) The present invention provides compositions and methods for lowering Aβ42 levels. To test whether compounds and compositions are capable of modulating Aβ levels in cultured cells, sandwich enzyme-linked immunosorbent assays (ELISAs) are employed to measure secreted Aβ (Aβ42 and/or Aβ40 levels). In this example, H4 cells expressing wide type APP695 are seeded at 200,000 cells per well in 6 well plates, and incubated at 37° C. with 5% CO2 overnight. Cells are treated with 1.5 ml medium containing vehicle (DMSO) or a test compound at 1.25 μM, 2.5 μM, 5.0 μM and 10.0 μM (as well as other concentration if desirable) for 24 hours or 48 hours. The supernatant from treated cells is collected into eppendorf tubes and frozen at −80° C. for future analysis.
(§2) The amyloid peptide standard is reconstituted and frozen samples are thawed. The samples and standards are diluted with appropriate diluents and the plate is washed 4 times with Working Wash Buffer and patted dry on a paper towel. 100 μL per well of peptide standards, controls, and dilutions of samples to be analyzed is added. The plate is incubated for 2 hours while shaking on an orbital plate shaker at RT. The plate is then washed 4 times with Working Wash Buffer and patted dry on a paper towel. Detection Antibody Solution is poured into a reservoir and 100 μL/well of Detection Antibody Solution is immediately added to the plate. The plate is incubated at RT for 2 hours while shaking and then washed four times with Working Wash Buffer and patted dry on a paper towel. Secondary Antibody Solution is then poured into a reservoir and 100 μL/well of Secondary Antibody Solution is immediately added to the plate. The plate is incubated at RT for 2 hours with shaking, washed 5 times with Working Wash Buffer, and patted dry on a paper towel.
(§3) 100 μL of stabilized chromogen is added to each well and the liquid in the wells begins to turn blue. The plate is incubated for 30 minutes at room temperature and in the dark. 100 μL of stop solution is added to each well and the plate is tapped gently to mix resulting in a change of solution color from blue to yellow. The absorbance of each well is read at 450 nm having blanked the plate reader against a chromogen blank composed of 100 μL each of stabilized chromogen and stop solution. The plate is read within 2 hours of adding the stop solution. The absorbance of the standards is plotted against the standard concentration and the concentrations of unknown samples and controls are calculated.
(§4) The present invention provides compositions and methods for lowering Aβ42 levels. To test whether compounds and compositions are capable of modulating Aβ levels, sandwich enzyme-linked immunosorbent assays (ELISAs) is employed to measure secreted Aβ42 and/or Aβ40 levels. In this example, H4 cells expressing wide type APP695 are seeded at 200,000 cells per well in 6 well plates, and incubated at 37° C. with 5% CO2 overnight. Cells are treated with 1.5 mL medium containing vehicle (DMSO) or a test compound at 1.25 μM, 2.5 μM, 5.0 μM and 10.0 μM concentration for 24 hours or 48 hours. The supernatant from treated cells is collected into eppendorf tubes and frozen at −80° C. for future analysis.
(§5) 130 μL per well of samples, standards, and blanks is added to a 96-well polypropylene plate. […] of samples, standards, and blanks from the polypropylene plate is added to the antibody-coated plates. The strip-holder with the appropriate number of strips is applied to the antibody-coated plates and the strips are covered with an adhesive sealer. The plate is then incubated 3 hours at room temperature while shaking on an orbital plate shaker.
(§6) The first antibody solution is prepared with Conjugate Diluent 1 at 1:100 ratio. Each well of the antibody-coated plates is washed 5 times with 400 μL washing solution and 100 μL of the prepared first antibody solution is added to each well. […]

A further assay deals with Aβ40 secretion. The assay can be described thus: Aβ40 secretion by H4 cells expressing APP695, sandwich ELISA. It is filed as cell-based, human. To be noted: medium collected at 24 or 48 hours, several numbers = independent sets of assays; for IC50: about 1 μM to about 100 μM; for inhibition at 100 µM / % Inhibition of Aβ40 Secretion @ 100 μM: test compound 100 μM vs DMSO control. The procedure: as §1, §2, §3, §4, §5, §6
In general terms: An ELISA detects its analyte on a solid surface through an enzyme-linked reagent.

“And” between values parts separate entries of the source, which are not always exact repeats. Equal values may be shown once. Bounds are passed on as bounds.

Broadly, the IC50 is the concentration that inhibits the measured activity by half. Read a low IC50 as higher potency. As a reminder, the inhibition is the drop in the measured response relative to a control, in per cent. `CCOC(=O)c1cc(CCc2ccccc2)n(-c2cccc(C(=O)O)c2)c1-c1ccccc1` [Compound 20, 1-(3-Carboxy-phenyl)-5-phenethyl-2-phenyl-1H-pyrrole-3-carboxylic acid ethyl ester]: in the assay with Aβ42 secretion (Homo sapiens), the midpoint of inhibition, the IC50, lay at 21 µM and the inhibition at 100 µM was found to be 95%. In the assay on Aβ40 secretion (Homo sapiens), the IC50 is more than 100 µM and the inhibition at 100 µM amounted to 49%.
In the same order, the values of `CCOC(=O)c1cc(CCc2ccccc2)n(-c2cccc(CCC(=O)O)c2)c1-c1ccccc1` [Compound 21, 1-[3-(2-Carboxy-ethyl)-phenyl]-5-phenethyl-2-phenyl-1H-pyrrole-3-carboxylic acid ethyl ester] are 55 µM, 66%, more than 100 µM and 38%.
In the same order, the values of `CCOC(=O)c1cc(CCc2ccccc2)n(-c2ccc(CCCC(=O)O)cc2)c1-c1ccccc1` [Compound 22, 1-[4-(3-Carboxy-propyl)-phenyl]-5-phenethyl-2-phenyl-1H-pyrrole-3-carboxylic acid ethyl ester] are 55 µM, 68%, 40 µM and 65%.
Taken in the same sequence, the figures for `O=C(O)c1cccc(-n2c(CCc3ccccc3)ccc2-c2ccccc2)c1` [Compound 23, 3-(2-Phenethyl-5-phenyl-pyrrol-1-yl)-benzoic acid] were 23 µM, 77%, 70 µM and 67%.
Turning to `O=C(O)CCc1cccc(-n2c(CCc3ccccc3)ccc2-c2ccccc2)c1` [Compound 24, 3-[3-(2-Phenethyl-5-phenyl-pyrrol-1-yl)-phenyl]-propionic acid], in the assay with Aβ42 secretion (Homo sapiens), it took 52 µM to reach half-maximal inhibition (IC50) and the inhibition at 100 µM turned out to be 73%. Further, in the assay with Aβ40 secretion (Homo sapiens), the 50% inhibitory concentration (IC50) is 100 µM and the inhibition at 100 µM was 52%.
In the same order, the values of `O=C(O)CCCc1ccc(-n2c(CCc3ccccc3)ccc2-c2ccccc2)cc1` [Compound 25, 4-[4-(2-Phenethyl-5-phenyl-pyrrol-1-yl)-phenyl]-butyric acid] are more than 100 µM, 40%, more than 100 µM and 30%.
For `Cc1c(-c2ccccc2)cc(-c2ccccc2)n1-c1cccc(OCC(=O)O)c1` [Compound 26, [3-(2-Methyl-3,5-diphenyl-pyrrol-1-yl)-phenoxy]-acetic acid], in the assay on Aβ42 secretion (Homo sapiens), the IC50 turned out to be 21 µM and the inhibition at 100 µM was determined as 147%. In the assay with Aβ40 secretion (Homo sapiens), the concentration for half-maximal inhibition (IC50) is 42 µM and the inhibition at 100 µM was 94%.
In the same order, the values of `Cc1c(-c2ccccc2)cc(-c2ccccc2)n1-c1ccc(OCCC(=O)O)cc1` [Compound 28, 3-[4-(2-Methyl-3,5-diphenyl-pyrrol-1-yl)-phenoxy]-propionic acid] are 80 µM, 55%, more than 32 µM and 32%.
On to `O=C(O)CCCc1ccc(-n2c(-c3ccccc3)cc(-c3ccccc3)c2C2CCCCC2)cc1` [Compound 29, 4-[4-(2-Cyclohexyl-3,5-diphenyl-pyrrol-1-yl)-phenyl]-butyric acid], for which, in the assay with Aβ42 secretion (Homo sapiens), the IC50 was found to be 14 µM and the inhibition at 100 µM is 102%. In the assay with Aβ40 secretion (Homo sapiens), it took 33 µM to reach half-maximal inhibition (IC50) and the inhibition at 100 µM came out at 103%.
Taken in the same sequence, the figures for `CC(C)c1c(-c2ccccc2)cc(-c2ccccc2)n1-c1cccc(C(=O)O)c1` [Compound 30, 3-(2-Isopropyl-3,5-diphenyl-pyrrol-1-yl)-benzoic acid] were 15 µM, 99%, 22 µM and 101%.
In the same order, the values of `CC(C)c1c(-c2ccccc2)cc(-c2ccccc2)n1-c1cccc(CCC(=O)O)c1` [Compound 31, 3-[3-(2-Isopropyl-3,5-diphenyl-pyrrol-1-yl)-phenyl]-propionic acid] are 21 µM, 95%, 23 µM and 106%.
Taken in the same sequence, the figures for `CC(C)c1c(-c2ccccc2)cc(-c2ccccc2)n1-c1ccc(CCCC(=O)O)cc1` [Compound 32, 4-[4-(2-Isopropyl-3,5-diphenyl-pyrrol-1-yl)-phenyl]-butyric acid] were 22 µM, 98%, 41 µM and 103%.
For `O=C(O)c1cccc(-n2c(-c3ccccc3)cc(-c3ccccc3)c2C2CC2)c1` [Compound 33, 3-(2-Cyclopropyl-3,5-diphenyl-pyrrol-1-yl)-benzoic acid], the IC50 with Aβ42 secretion (Homo sapiens) stood at 21 µM; with Aβ42 secretion, 24 µM; in the assay with Aβ40 secretion (Homo sapiens), 74 µM; in the assay with Aβ40 secretion, 79 µM. The figures for the inhibition at 100 µM in the assay with Aβ42 secretion (Homo sapiens) and in the assay on Aβ40 secretion (Homo sapiens) were 89% and 73%, respectively. Moreover, the “% Inhibition of Aβ42 Secretion @ 100 μM” value with Aβ42 secretion turned out to be 86%. The “% Inhibition of Aβ40 Secretion @ 100 μM” value in the assay on Aβ40 secretion is given as 73, 73%.
As to `O=C(O)CCc1cccc(-n2c(-c3ccccc3)cc(-c3ccccc3)c2C2CC2)c1` [Compound 34, 3-[3-(2-Cyclopropyl-3,5-diphenyl-pyrrol-1-yl)-phenyl]-propionic acid], in the assay on Aβ42 secretion (Homo sapiens), half-maximal inhibition (IC50) was put at 30 µM and the inhibition at 100 µM was determined as 95%. For the same compound, in the assay on Aβ40 secretion (Homo sapiens), the IC50 was found to be 48 µM and the inhibition at 100 µM was found to be 100%.
`O=C(O)CCCc1ccc(-n2c(-c3ccccc3)cc(-c3ccccc3)c2C2CC2)cc1` [Compound 35, 4-[4-(2-Cyclopropyl-3,5-diphenyl-pyrrol-1-yl)-phenyl]-butyric acid]: in the assay on Aβ42 secretion (Homo sapiens), the IC50 amounted to 29 µM and the inhibition at 100 µM stood at 83%. In the assay with Aβ42 secretion, the concentration for half-maximal inhibition (IC50) was determined as 24 µM and the “% Inhibition of Aβ42 Secretion @ 100 μM” value turned out to be 93%. In the assay with Aβ40 secretion (Homo sapiens), this compound registered a concentration for half-maximal inhibition (IC50) of 79 µM. Moreover, in the assay with Aβ40 secretion, the IC50 came to 68 µM; the “% Inhibition of Aβ40 Secretion @ 100 μM” value was 73% and 96%.
Consider `CC(C)(C)Cc1c(-c2ccccc2)cc(-c2ccccc2)n1-c1cccc(C(=O)O)c1` [Compound 36, 3-[2-(2,2-Dimethyl-propyl)-3,5-diphenyl-pyrrol-1-yl]-benzoic acid], for which the IC50 in the assay on Aβ42 secretion (Homo sapiens) stood at 8 µM; in the assay with Aβ42 secretion, 7 µM; in the assay with Aβ40 secretion (Homo sapiens), 29 µM; in the assay with Aβ40 secretion, 19 µM. Further, the inhibition at 100 µM in the assay on Aβ42 secretion (Homo sapiens) was 99%; with Aβ40 secretion (Homo sapiens), 103%. Besides, the “% Inhibition of Aβ42 Secretion @ 100 μM” value with Aβ42 secretion turned out to be 101%. Further, the “% Inhibition of Aβ40 Secretion @ 100 μM” value with Aβ40 secretion was determined as 96%.
Take `CC(C)(C)Cc1c(-c2ccccc2)cc(-c2ccccc2)n1-c1cccc(CCC(=O)O)c1` [Compound 37, 3-{3-[2-(2,2-Dimethyl-propyl)-3,5-diphenyl-pyrrol-1-yl]-phenyl}-propionic acid]: in the assay with Aβ42 secretion (Homo sapiens), half-maximal inhibition (IC50) required 9 µM and the inhibition at 100 µM worked out at 100%. In the assay with Aβ42 secretion, 7 µM corresponded to half-maximal inhibition (IC50) and the “% Inhibition of Aβ42 Secretion @ 100 μM” value was found to be 99%. In the assay on Aβ40 secretion (Homo sapiens), the IC50 stood at 30 µM and the inhibition at 100 µM is 98%. In addition, in the assay on Aβ40 secretion, the IC50 came out at 32 µM and the “% Inhibition of Aβ40 Secretion @ 100 μM” value is reported as 104%.

Values taken from US8217073B2, “Pyrrole derivatives as therapeutic compounds” (Myrexis, Inc., priority 2005, dated 2012).
